Assay results reported in patent US20260115250A1, “METHODS OF TREATING AGE-RELATED MACULAR DEGENERATION” (Character Biosciences, Inc., priority 2022, published 2026).

Tests used:
[1] = DMPC solubility assay, 0.5 mM DMPC (turbidity reduction); type: biochemical; conditions: for DMPC solubilizing activity: FIGS. 2A-2D and 3A-3C; for EC50: 3.16-100 μM peptides, 15 minutes
Procedure: In this example, peptide stocks were diluted to 200 μM in H2O (a 2× solution) and 50 μL of peptide solution was transferred in triplicate into 96-well plates. A one mM solution of 1,2-dimyristoyl-sn-glycero-3-phosphocholine (DMPC) in H2O was prepared, and using a multichannel pipet, 50 μL DMPC solution was rapidly added to the plate. Peptide and lipid solutions were incubated at room temperature for 15 minutes with a final concentration of 100 μM peptides and 0.5 mM DMPC. After 15 minutes, absorbance was read on a plate reader at 405 nm. […] Data are presented as mean+SD over two runs.
In these experiments, DMPC solubility titration curves were generated. Peptide stocks were diluted to 200 μM in H2O (a 2× solution) and serially diluted in H2O over 4 concentrations, then 50 μL of peptide solutions were distributed in triplicate into 96-well plates. A 1 mM solution of 1,2-dimyristoyl-sn-glycero-3-phosphocholine (DMPC) in H2O was prepared, and using a multichannel pipet, 50 μL DMPC solution was rapidly added to the plate. Peptide and lipid solutions were incubated at room temperature for 15 minutes with final concentrations of 3.16-100 μM peptides and 0.5 mM DMPC. After 15 minutes, absorbance was read on a plate reader at 405 nm. […] Data are presented as mean+SD over two runs. Non-linear regression was used to calculate EC50 values.

[2] = tested on: HMC3 cells; assay: HMC3 cholesterol efflux; type: cell-based, human; conditions: HMC3, 20 μM peptide, 4 hours
Procedure: (§1) FIGS. 27A-27B and FIG. 28 illustrate HMC3 cholesterol efflux. Fully confluent 96-well plates of HMC3 cells were treated for 1 hour in serum-free EMEM containing 10 mM methyl-β-cyclodextrin, 100 μM cholesterol, and 25 μM BODIPY cholesterol. Cells were then washed and incubated overnight in serum free EMEM containing 1 μM LXR agonist GW3965, 2 μg/mL ACAT inhibitor, and 0.2% BSA (LXR Agonist treated), or serum-free EMEM containing 2 μg/mL ACAT inhibitor, and 0.2% BSA (Control). Cells were washed and incubated with 20 μM peptides diluted in serum-free Fluorobrite DMEM for 4 hours at 37° C. Media was transferred to a new 96-well plate and fresh serum-free Fluorobrite DMEM was placed on the cells. Media and cellular fluorescence were read on a Promega GloMax at 475 nm excitation, 500-550 emission. Fluorescence values were background corrected from no treatment conditions and percent efflux was calculated by the following equation: % efflux=(Media Fluorescence values)/(Media+Cell Fluorescence values). Data are presented as mean+SD over two runs per peptide.
as §1, with “FIGS. 30A-30J show” for “FIGS. 27A-27B and FIG. 28 illustrate”, “cholesterol efflux titration curves for the indicated peptides.” for “cholesterol efflux.”, “μM” for “μM LXR agonist”, “or serum free” for “or serum-free”, “with 0-100” for “with 20”, “peptides serially” for “peptides”

[3] = target: T1, ABCA1 (Homo sapiens, UniProt O95477); assay: membrane ABCA1 stability testing in ARPE-19 cells treated with mCRP; type: cell-based; conditions: ARPE-19, mCRP, 20 μM peptide, 24 hours
T1 construct: endogenous in cells; host or cells: ARPE-19
T1 sequence (O95477 whole entry): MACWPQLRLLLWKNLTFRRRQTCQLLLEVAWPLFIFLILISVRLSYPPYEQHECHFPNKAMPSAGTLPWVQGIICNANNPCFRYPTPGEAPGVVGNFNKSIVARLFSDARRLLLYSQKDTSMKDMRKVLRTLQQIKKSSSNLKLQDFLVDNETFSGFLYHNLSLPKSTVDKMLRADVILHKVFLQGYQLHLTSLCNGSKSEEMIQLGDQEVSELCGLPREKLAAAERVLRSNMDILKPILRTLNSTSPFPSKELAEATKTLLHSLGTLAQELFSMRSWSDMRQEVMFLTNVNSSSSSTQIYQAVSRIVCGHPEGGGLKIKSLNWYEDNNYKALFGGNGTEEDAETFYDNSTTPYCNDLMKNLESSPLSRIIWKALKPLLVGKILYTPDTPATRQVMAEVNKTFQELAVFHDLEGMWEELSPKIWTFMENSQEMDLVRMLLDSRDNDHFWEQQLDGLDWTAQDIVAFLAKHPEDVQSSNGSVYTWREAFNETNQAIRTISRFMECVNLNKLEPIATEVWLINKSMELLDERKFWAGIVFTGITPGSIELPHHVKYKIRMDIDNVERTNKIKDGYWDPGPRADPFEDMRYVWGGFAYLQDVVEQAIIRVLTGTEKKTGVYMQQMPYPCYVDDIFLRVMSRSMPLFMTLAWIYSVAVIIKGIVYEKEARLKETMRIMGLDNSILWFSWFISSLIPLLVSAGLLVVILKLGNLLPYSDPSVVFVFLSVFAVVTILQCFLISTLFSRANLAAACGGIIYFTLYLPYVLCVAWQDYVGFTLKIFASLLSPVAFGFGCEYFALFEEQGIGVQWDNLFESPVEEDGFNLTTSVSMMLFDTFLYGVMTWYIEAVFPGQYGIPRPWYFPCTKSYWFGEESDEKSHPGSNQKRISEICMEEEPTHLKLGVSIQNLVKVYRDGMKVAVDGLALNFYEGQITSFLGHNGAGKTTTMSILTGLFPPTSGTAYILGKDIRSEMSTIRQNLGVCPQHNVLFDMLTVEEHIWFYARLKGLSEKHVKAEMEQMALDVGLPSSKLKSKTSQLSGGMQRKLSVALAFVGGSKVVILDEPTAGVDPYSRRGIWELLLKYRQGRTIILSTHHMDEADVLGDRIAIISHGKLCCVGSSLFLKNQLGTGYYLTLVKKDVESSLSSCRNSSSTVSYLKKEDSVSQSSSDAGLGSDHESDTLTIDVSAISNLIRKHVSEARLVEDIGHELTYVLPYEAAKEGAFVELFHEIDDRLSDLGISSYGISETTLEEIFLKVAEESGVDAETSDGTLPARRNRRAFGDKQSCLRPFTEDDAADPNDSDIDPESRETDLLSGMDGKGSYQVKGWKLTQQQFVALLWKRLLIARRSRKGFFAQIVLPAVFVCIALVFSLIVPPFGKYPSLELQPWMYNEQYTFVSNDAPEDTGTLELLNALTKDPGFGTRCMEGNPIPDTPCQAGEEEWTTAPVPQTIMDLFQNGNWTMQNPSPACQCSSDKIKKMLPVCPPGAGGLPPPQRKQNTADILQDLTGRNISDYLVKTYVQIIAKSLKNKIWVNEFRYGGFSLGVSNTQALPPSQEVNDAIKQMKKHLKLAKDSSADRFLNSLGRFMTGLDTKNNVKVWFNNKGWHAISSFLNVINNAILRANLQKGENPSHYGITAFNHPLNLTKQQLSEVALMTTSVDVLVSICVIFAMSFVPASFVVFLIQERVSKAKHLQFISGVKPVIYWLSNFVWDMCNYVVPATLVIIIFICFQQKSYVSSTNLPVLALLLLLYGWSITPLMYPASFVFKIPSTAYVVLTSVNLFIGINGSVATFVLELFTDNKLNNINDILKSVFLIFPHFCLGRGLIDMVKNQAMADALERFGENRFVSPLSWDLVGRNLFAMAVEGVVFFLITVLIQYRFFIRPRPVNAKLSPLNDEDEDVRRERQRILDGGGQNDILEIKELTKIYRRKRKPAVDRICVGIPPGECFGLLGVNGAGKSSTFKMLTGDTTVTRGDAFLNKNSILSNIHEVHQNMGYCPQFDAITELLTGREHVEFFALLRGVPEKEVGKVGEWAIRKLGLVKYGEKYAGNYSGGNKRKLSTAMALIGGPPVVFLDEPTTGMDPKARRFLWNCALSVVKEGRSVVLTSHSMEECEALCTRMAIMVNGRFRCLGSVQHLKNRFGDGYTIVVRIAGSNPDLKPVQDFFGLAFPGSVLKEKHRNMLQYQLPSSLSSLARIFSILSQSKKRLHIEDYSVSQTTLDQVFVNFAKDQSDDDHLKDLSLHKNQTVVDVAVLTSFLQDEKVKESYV
Procedure: ARPE-19 cells were seeded at 100,000 cells per well on 12-well plates and were allowed to grow to confluence. To prepare monomeric CRP (mCRP), recombinant CRP was prepared in a PBS solution containing 8 M Urea and 10 mM EDTA and incubated at 37° C. for 2 hours prior to desalting with a Zeba spin column (7K MW cutoff). mCRP was prepared to a 2× solution of 20 μg/mL. A 2× solution of 40 μM peptides was prepared in serum-free DMEM and serially diluted 1:2 over 4 concentrations. mCRP and peptides were added 1:1 to cells for 24 hours at 37° C. before isolating membrane protein and measuring membrane ABCA1 levels by western blot. Blots were quantified in ImageJ. Signals were further normalized to the LXR agonist treated group to determine percent (%) ABCA1 remaining. Treatment with LXR agonist increased membrane ABCA1 levels in this assay, but following treatment with mCRP, membrane ABCA1 levels were decreased.
FIGS. 35 and 36 show membrane ABCA1 stability testing using ARPE-19 cells. ARPE-19 cells were seeded at 100,000 cells per well on 12-well plates and were allowed to grow to confluence. To prepare monomeric CRP (mCRP), recombinant CRP was prepared in a PBS solution containing 8 M Urea and 10 mM EDTA and incubated at 37° C. for 2 hours prior to desalting with a Zeba spin column (7K MW cutoff). mCRP was prepared to a 2× solution of 20 μg/mL. A 2× solution of 40 μM peptides was prepared in serum-free DMEM. CRP and peptides were added 1:1 to cells for 24 hours at 37° C. before isolating membrane protein and measuring membrane ABCA1 levels by western blot. Blots were quantified in ImageJ. In FIG. 35, Signals were further normalized to the T-087 treated group to determine percent (%) ABCA1 levels compared to peptide T-087 treated cells. In FIG. 36, Signals were further normalized to the peptide T-101 treated group to determine percent (%) ABCA1 levels compared to peptide T-101 treated cells.

Row | Substance | cholesterol efflux in the presence of LXR agonist [2] | membrane ABCA1 levels compared to peptide T-101 treated cells [3] | further results
1 | T-010: therapeutic peptide (RDADDLQKRLAVYQAGAREGAE) |  |  | DMPC solubilizing activity [1]: significant activity
2 | T-140: variant of peptide T-101 (RSGADALESALKELKRFIRAWT) | greater cholesterol efflux |  | 
3 | T-138: variant of peptide T-101 (RSGADALESALKELKRFAREWT) | greater cholesterol efflux | reduction of membrane ABCA1 levels | 
4 | T-126: variant of peptide T-101 (RSGADPLESALKELKRFIREWT) | greater cholesterol efflux | reduction of membrane ABCA1 levels | 
5 | T-146: variant of peptide T-101 (AAAADALESALKELKRFIREWT) | greater cholesterol efflux |  | 
6 | T-015: therapeutic peptide (LVGRQLEEFL) |  |  | DMPC solubilizing activity [1]: did not have significant solubilizing activity
7 | HLRKLRKRLLRDGDDLQDRLAEYQARAKEAFDR [T-051, therapeutic peptide] |  |  | EC50 [1]: 15.6 µM
8 | T-011: therapeutic peptide (DADDLQKRLAVYQAGAREGAER) |  |  | DMPC solubilizing activity [1]: significant activity
9 | T-006: therapeutic peptide (QDEPPQSPWDRVKDLATVYVDVLKDSGRDYVSQFEGSALGKQLN) |  |  | DMPC solubilizing activity [1]: significant activity
10 | T-144: variant of peptide T-101 (RSGADGLESALKELKRFIREWT) | greater cholesterol efflux |  | 
11 | T-014: therapeutic peptide (EQAQQIRLQAEAFQARLKSWFE) |  |  | DMPC solubilizing activity [1]: significant activity
12 | T-124: variant of peptide T-101 (RSGPDALESALKELKRFIREWT) | greater cholesterol efflux | reduction of membrane ABCA1 levels | 
13 | T-128: variant of peptide T-101 (RSGADALASALKELKRFIREWT) | greater cholesterol efflux | reduction of membrane ABCA1 levels | 
14 | T-005: therapeutic peptide (PLRAELQEGARQKLHELQEKLS) |  |  | DMPC solubilizing activity [1]: did not have significant solubilizing activity
15 | HLRKLRKRLLRDGDKLSDRLAEYVARAKEAFDR [T-080, therapeutic peptide] |  |  | EC50 [1]: 155 µM
16 | T-148: variant of peptide T-101 (RSGADALESAAAALKRFIREWT) | greater cholesterol efflux | reduction of membrane ABCA1 levels | 
17 | T-019: therapeutic peptide (NMDEINKRLHAYEEGVKKAADE) |  |  | DMPC solubilizing activity [1]: significant activity
18 | T-104: therapeutic peptide (TVRGSADALLEHLTRAWDGFNR) |  | reduction of membrane ABCA1 levels | 

Row | Substance | cholesterol efflux in the presence of LXR agonist [2] | membrane ABCA1 levels compared to peptide T-101 treated cells [3] | further results
19 | T-135: variant of peptide T-101 (RSGADALESALKELARFIREWT) | greater cholesterol efflux | reduction of membrane ABCA1 levels | 
20 | T-121: variant of peptide T-101 (ASGADALESALKELKRFIREWT) | greater cholesterol efflux | reduction of membrane ABCA1 levels | 
21 | T-173: variant of peptide T-087 (AAAERFRALFKELADYFR) |  |  | membrane ABCA1 levels compared to peptide T-087 treated cells [3]: reduction of membrane ABCA1 levels
22 | T-151: variant of peptide T-101 (RSGADALESALKELKRFIRAAA) | greater cholesterol efflux |  | 
23 | T-132: variant of peptide T-101 (RSGADALESALAELKRFIREWT) |  | reduction of membrane ABCA1 levels | 
24 | T-020: therapeutic peptide (DGDKLCDRLAEYCARAKEAFDR) |  |  | DMPC solubilizing activity [1]: did not have significant solubilizing activity
25 | T-149: variant of peptide T-101 (RSGADALESALKEAAAFIREWT) | greater cholesterol efflux | reduction of membrane ABCA1 levels | 
26 | T-026: therapeutic peptide (GFGDWIDSIEAFSRSLHS) |  |  | DMPC solubilizing activity [1]: significant activity
27 | T-142: variant of peptide T-101 (RSGADALESALKELKRFIREWA) | greater cholesterol efflux |  | 
28 | T-130: variant of peptide T-101 (RSGADALESPLKELKRFIREWT) |  | reduction of membrane ABCA1 levels | 
29 | T-145: variant of peptide T-101 (RSGADALESGLKELKRFIREWT) | greater cholesterol efflux | reduction of membrane ABCA1 levels | 
30 | T-127: variant of peptide T-101 (RSGADAAESAAKELKRFIREWT) |  | reduction of membrane ABCA1 levels | 
31 | T-137: variant of peptide T-101 (RSGADALESALKELKRAIREWT) | greater cholesterol efflux | reduction of membrane ABCA1 levels | 
32 | T-141: variant of peptide T-101 (RSGADALESALKELKRFIREAT) | greater cholesterol efflux | reduction of membrane ABCA1 levels | 
33 | T-150: variant of peptide T-101 (RSGADALESALKELKRAAAEWT) | greater cholesterol efflux | reduction of membrane ABCA1 levels | 
34 | T-143: variant of peptide T-101 (RSGGDALESALKELKRFIREWT) | greater cholesterol efflux |  | 
35 | T-134: variant of peptide T-101 (RSGADALESALKEAKRFIREWT) | greater cholesterol efflux | reduction of membrane ABCA1 levels | 
36 | T-177: variant of peptide T-087 (DAWERFRALFKEAAAYFR) |  |  | membrane ABCA1 levels compared to peptide T-087 treated cells [3]: reduction of membrane ABCA1 levels
